Results reported in patent publication US10947252B2, “Inhibitors of KEAP1-Nrf2 protein-protein interaction” (Janssen Pharmaceutica NV, priority 2018, dated 2021).

Experiments:
[1] = tested on: Glo-Response ARE-luc2P HEK293 cell line; test: ARE luciferase reporter cell-based assay; details: Homo sapiens, HEK293, 24 h, average of results obtained;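 also: luciferase signal tracks Nrf2 activation of the ARE once compounds disrupt KEAP1-Nrf2 binding, read with One-Glo reagent, DMSO serving as low control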
[2] = target: Kelch domain of human KEAP1 (321-624 aa) (Homo sapiens (Human), UniProt Q14145); test: KEAP1 KELCH ThermoFluor binding assay; details: KEAP Kelch […], 1,8-ANS, pH 7.0, average of results obtained, read-out: Tf Kd;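 also: Ligand-induced melting temperature shift of E. coli-expressed KEAP1 Kelch protein, Kd estimated from concentration-response curves of ΔTm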
Kelch domain of human KEAP1 (321-624 aa), sequence (Q14145 321-624): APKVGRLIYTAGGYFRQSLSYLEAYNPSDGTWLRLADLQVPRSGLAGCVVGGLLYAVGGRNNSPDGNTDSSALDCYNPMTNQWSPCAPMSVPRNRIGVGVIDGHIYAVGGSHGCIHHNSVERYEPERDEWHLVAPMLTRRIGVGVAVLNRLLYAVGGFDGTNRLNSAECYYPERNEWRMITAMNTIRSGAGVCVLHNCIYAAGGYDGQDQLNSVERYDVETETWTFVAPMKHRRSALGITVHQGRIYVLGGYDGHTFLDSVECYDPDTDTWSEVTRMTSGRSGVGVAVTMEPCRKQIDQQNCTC

SMILES | EC50 [1] [nM] | Kd [2] [nM]
Cc1ccc([C@H](CC(=O)O)c2ccn3c(C(F)(F)F)nnc3c2C)cc1CN1C[C@H]2COCCN2c2ncc(C#N)cc2S1(=O)=O (single isomer, unassigned) [Example 196, (*S)-3-(3-(((*S)-3-Cyano-5,5-dioxido-7a,8,10,11-tetrahydro-[1,4]oxazino[3,4-d]pyrido[2,3-f][1,2,5]thiadiazepin-6(7H)-yl)methyl)-4-methylphenyl)-3-(8-methyl-3-(trifluoromethyl)-[1,2,4]triazolo[4,3-a]pyridin-7-yl)propanoic Acid] | 15 | < 1
Cc1ccc([C@H](CC(=O)O)c2ccc3c(nnn3C3CC3)c2C)cc1CN1CC2(COC2)Oc2ccccc2S1(=O)=O (single isomer, unassigned) [Example 215, (*S)-3-(1-Cyclopropyl-4-methyl-1H-benzo[d][1,2,3]triazol-5-yl)-3-(3-((1,1-dioxidospiro[benzo[b][1,4,5]oxathiazepine-4,3′-oxetan]-2(3H)-yl)methyl)-4-methylphenyl)propanoic Acid] | 3.3 | < 1
Cc1ccc([C@H](CC(=O)O)c2ccn3c(C(F)(F)F)nnc3c2C)cc1CN1C[C@@H]2CN(C)CCN2c2ncccc2S1(=O)=O (single isomer, unassigned) [Example 178, (*S)-3-(4-Methyl-3-(((S)-9-methyl-5,5-dioxido-7,7a,8,9,10,11-hexahydro-6H-pyrazino[2,1-d]pyrido[2,3-f][1,2,5]thiadiazepin-6-yl)methyl)phenyl)-3-(8-methyl-3-(trifluoromethyl)-[1,2,4]triazolo[4,3-a]pyridin-7-yl)propanoic Acid] | 440 | 30
Cc1cnc2c(c1)S(=O)(=O)N(Cc1cc(C(c3ccc4c(nnn4C4CC4)c3C)C(C)(C)C(=O)O)cnc1C)CC1(CC1)O2 (racemic) [Example 394, (R/S)-3-(1-Cyclopropyl-4-methyl-1H-benzo[d][1,2,3]triazol-5-yl)-2,2-dimethyl-3-(6-methyl-5-((8′-methyl-1′,1′-dioxidospiro[cyclopropane-1,4′-pyrido[2,3-b][1,4,5]oxathiazepin]-2′(3′H)-yl)methyl)pyridin-3-yl)propanoic Acid] | 40.1 | < 1
Cc1cnc2c(c1)S(=O)(=O)N(Cc1cc([C@H](c3cc4cc(C)nnc4n3C)C(C)(C)C(=O)O)ccc1C)CC1(CC1)O2 (single isomer, unassigned) [Example 331, (*R)-3-(3,7-Dimethyl-7H-pyrrolo[2,3-c]pyridazin-6-yl)-2,2-dimethyl-3-(4-methyl-3-((8′-methyl-1′,1′-dioxidospiro[cyclopropane-1,4′-pyrido[2,3-b][1,4,5]oxathiazepin]-2′(3′H)-yl)methyl)phenyl)propanoic Acid] | 17.1 | < 1
Cc1ccc(C(CC(=O)O)c2ccn3c(C(F)F)nnc3c2C)cc1CN1CC2(CC2)Oc2ncc(F)cc2S1(=O)=O (stereo not drawn) [Example 526, 3-(3-(Difluoromethyl)-8-methyl-[1,2,4]triazolo[4,3-a]pyridin-7-yl)-3-(3-((8′-fluoro-1′,1′-dioxidospiro[cyclopropane-1,4′-pyrido[2,3-b][1,4,5]oxathiazepin]-2′(3′H)-yl)methyl)-4-methylphenyl)propanoic Acid] | 60.1 | < 1
Cc1ccc(C(CC(=O)O)c2ccc3c(nnn3C3CC3)c2C)cc1CN1C[C@@H]2COCCN2c2ncccc2S1(=O)=O (stereo in doubt) [Example 23, 3-(1-Cyclopropyl-4-methyl-1H-benzo[d][1,2,3]triazol-5-yl)-3-(3-(((*R)-5,5-dioxido-7a,8,10,11-tetrahydro-[1,4]oxazino[3,4-d]pyrido[2,3-f][1,2,5]thiadiazepin-6(7H)-yl)methyl)-4-methylphenyl)propanoic Acid] | 8.3 | 0.278
CCn1nnc2c(C)c(C(CC(=O)O)c3ccc(C)c(CN4C[C@H]5CCCN5c5ncccc5S4(=O)=O)n3)ccc21 (stereo partly drawn) [Example 296, 3-(6-(((R)-5,5-Dioxido-7a,8,9,10-tetrahydropyrido[2,3-f]pyrrolo[2,1-d][1,2,5]thiadiazepin-6(7H)-yl)methyl)-5-methylpyridin-2-yl)-3-(1-ethyl-4-methyl-1H-benzo[d][1,2,3]triazol-5-yl)propanoic Acid] | 13.6 | < 1
Cc1cnc2c(c1)S(=O)(=O)N(Cc1cc([C@@H](CC(=O)O)c3ccn4c(C(F)(F)F)nnc4c3C)ccc1C)CC1(CC1)O2 (single isomer, unassigned) [Example 64, (*R)-3-(4-methyl-3-((8′-methyl-1′,1′-dioxidospiro[cyclopropane-1,4′-pyrido[2,3-b][1,4,5]oxathiazepin]-2′(3′H)-yl)methyl)phenyl)-3-(8-methyl-3-(trifluoromethyl)-[1,2,4]triazolo[4,3-a]pyridin-7-yl)propanoic Acid] | 304 | < 1
Cc1ccc([C@H](c2ccn3c(C4CC4)nnc3c2C)C(C)(C)C(=O)O)cc1CN1CC2(CC2)Oc2nc(OCCN3CCCC3)c(C)cc2S1(=O)=O (single isomer, unassigned) [Example 664, (*R)-3-(3-Cyclopropyl-8-methyl-[1,2,4]triazolo[4,3-a]pyridin-7-yl)-2,2-dimethyl-3-(4-methyl-3-((8′-methyl-1′,1′-dioxido-7′-(2-(pyrrolidin-1-yl)ethoxy)spiro[cyclopropane-1,4′-pyrido[2,3-b][1,4,5]oxathiazepin]-2′(3′H)-yl)methyl)phenyl)propanoic Acid] | > 20000 | 1840
Cc1ccc([C@@H](c2ccn3c(C(F)(F)F)nnc3c2)C(C)(C)C(=O)O)cc1CN1CC2(CCOCC2)Oc2ncccc2S1(=O)=O (single isomer, unassigned) [Example 320, (*S)-3-(3-((1′,1′-Dioxido-2,3,5,6-tetrahydrospiro[pyran-4,4′-pyrido[2,3-b][1,4,5]oxathiazepin]-2′(3′H)-yl)methyl)-4-methylphenyl)-2,2-dimethyl-3-(3-(trifluoromethyl)-[1,2,4]triazolo[4,3-a]pyridin-7-yl)propanoic Acid] | 19400 | 831
Cc1ccc([C@@H](CC(=O)O)c2ccn3c(C(F)F)nnc3c2C)cc1CN1CC2(CC2)Oc2ncccc2S1(=O)=O (single isomer, unassigned) [Example 474, (*R)-3-(3-(Difluoromethyl)-8-methyl-[1,2,4]triazolo[4,3-a]pyridin-7-yl)-3-(3-((1′,1′-dioxidospiro[cyclopropane-1,4′-pyrido[2,3-b][1,4,5]oxathiazepin]-2′(3′H)-yl)methyl)-4-methylphenyl)propanoic Acid] | 1580 | < 1
Cc1ccc([C@@H](CC(=O)O)c2ccn3c(C(F)(F)F)nnc3c2C)nc1CN1C[C@H]2CCCCN2c2ncc(C#N)cc2S1(=O)=O (single isomer, unassigned) [Example 35, (*S)-3-(6-(((*R)-3-Cyano-5,5-dioxido-7,7a,8,9,10,11-hexahydro-6H-dipyrido[2,1-d:2′,3′-f][1,2,5]thiadiazepin-6-yl)methyl)-5-methylpyridin-2-yl)-3-(8-methyl-3-(trifluoromethyl)-[1,2,4]triazolo[4,3-a]pyridin-7-yl)propanoic Acid] | 65.7 | < 1
Cc1ccc([C@H](c2ccn3c(C(F)(F)F)nnc3c2C)C(C)(C)C(=O)O)cc1CN1C[C@@H]2CCCCN2c2ncc(C#N)cc2S1(=O)=O (single isomer, unassigned) [Example 425, (*R)-3-(3-(((*S)-3-cyano-5,5-dioxido-7,7a,8,9,10,11-hexahydro-6H-dipyrido[2,1-d:2′,3′-f][1,2,5]thiadiazepin-6-yl)methyl)-4-methylphenyl)-2,2-dimethyl-3-(8-methyl-3-(trifluoromethyl)-[1,2,4]triazolo[4,3-a]pyridin-7-yl)propanoic Acid] | 96.9 | < 1
Cc1ccc([C@@H](c2ccn3c(C(F)(F)F)nnc3c2C)C(C)(C)C(=O)O)cc1CN1CC2(CC2)Oc2nc(OCCN3CCCC3)c(C)cc2S1(=O)=O (single isomer, unassigned) [Example 373, (*S)-2,2-Dimethyl-3-(4-methyl-3-((8′-methyl-1′,1′-dioxido-7′-(2-(pyrrolidin-1-yl)ethoxy)spiro[cyclopropane-1,4′-pyrido[2,3-b][1,4,5]oxathiazepin]-2′(3′H)-yl)methyl)phenyl)-3-(8-methyl-3-(trifluoromethyl)-[1,2,4]triazolo[4,3-a]pyridine-7-yl)propanoic Acid] | 5.4 | < 1
Cc1ccc([C@@H](CC(=O)O)c2ccc3c(nnn3CC3CC3)c2C)cc1CN1CC2(COC2)Oc2ccccc2S1(=O)=O (single isomer, unassigned) [Example 76, (*R)-3-(1-(cyclopropylmethyl)-4-methyl-1H-benzo[d][1,2,3]triazol-5-yl)-3-(3-((1′,1′-dioxidospiro[benzo[b][1,4,5]oxathiazepin-4,3′-oxetan]-2,(3H)-yl)methyl)-4-methylphenyl)propanoic Acid] | 136 | 4.8
CCn1nnc2c(C)c(C(c3cnc(C)c(CN4CC5(CCOCC5)Oc5ncccc5S4(=O)=O)c3)C(C)(C)C(=O)O)ccc21 (racemic) [Example 58, (R/S)-3-(5-((1′,1′-Dioxido-2,3,5,6-tetrahydrospiro[pyran-4,4′-pyrido[2,3-b][1,4,5]oxathiazepin]-2′(3′H)-yl)methyl)-6-methylpyridin-3-yl)-3-(1-ethyl-4-methyl-1H-benzo[d][1,2,3]triazol-5-yl)-2,2-dimethylpropanoic Acid] | 226 | 2.4
CCn1nnc2c(C)c(C(CC(=O)O)c3ccc(C)c(CN4CC5(CCOCC5)Oc5ccc(F)cc5S4(=O)=O)n3)ccc21 (single isomer, unassigned) [Example 419, (*R)-3-(1-ethyl-4-methyl-1H-benzo[d][1,2,3]triazol-5-yl)-3-(6-((8-fluoro-1,1-dioxido-2′,3′,5′,6′-tetrahydrospiro[benzo[b][1,4,5]oxathiazepine-4,4′-pyran]-2(3H)-yl)methyl)-5-methylpyridin-2-yl)propanoic Acid] | 4.15 | < 1
